Test results reported in article PMC10762035, “Molecular basis of human trace amine-associated receptor 1 activation” (Nature Communications, 2024).
Changes are numbered by the printed parent chain. “And” between values parts separate entries of the source, which are not always exact repeats. Equal entries are not always repeated.

Tests used:
hTA1 = target: T1, hTA1 (Homo sapiens, UniProt Q96RJ0); experiment: GloSensor cAMP accumulation assay, concentration response, wild-type hTA1 in transfected HEK293T cells; assay type: cell-based; details: for Dose-response curves for asenapine vs endogenous trace amines: log[Compound], replicate values (N=2);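 on all read-outs here: luminescence read after 30 min compound exposure at room temperature in cells preloaded with D-Luciferin, reflecting Gs-driven cAMP rise, efficacy scaled to the maximal β-PEA response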
T1 construct: expressed in transfected cells; host or cells: HEK293T
T1 sequence (Q96RJ0 1-339): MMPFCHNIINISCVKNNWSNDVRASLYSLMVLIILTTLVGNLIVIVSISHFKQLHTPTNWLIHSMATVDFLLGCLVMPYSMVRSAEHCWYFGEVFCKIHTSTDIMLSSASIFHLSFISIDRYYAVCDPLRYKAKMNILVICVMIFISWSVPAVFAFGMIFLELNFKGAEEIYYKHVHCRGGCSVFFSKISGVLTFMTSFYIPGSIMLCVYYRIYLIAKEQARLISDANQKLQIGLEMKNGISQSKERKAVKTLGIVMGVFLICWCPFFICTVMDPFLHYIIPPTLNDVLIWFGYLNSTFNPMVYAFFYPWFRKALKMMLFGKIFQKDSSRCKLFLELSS

hTA1 I290Y = target: T2, hTA1 I290Y (Homo sapiens, UniProt Q96RJ0, I290Y); experiment: GloSensor cAMP accumulation assay, I290Y mutant; assay type: cell-based; details: for Normalized Luminescence Counts for Concentration Response Curves: I120Y, log[Agonist], single replicates
T2 construct: expressed in transfected cells; host or cells: HEK293T
T2 sequence (Q96RJ0 1-339 I290Y): T1 sequence (Q96RJ0 1-339) with I290Y

## NCCc1ccccc1 [β-PEA, β-phenethylamine]
hTA1; WT hTA1, Figure 5B, β-PEA = 100, average of the independent experiments
  Emax values, Avg: 100
hTA1; WT hTA1, Figure 5B, β-PEA = 100, each row one independent experiment (3 replicates)
  Emax values, Mean: 100
hTA1; WT hTA1, average of the two experiments, Figure 2B source data
  pEC50 values, Avg: 7.094
hTA1; WT hTA1, each line an independent experiment, 3 replicates, Figure 2B source data
  pEC50 values, Mean: 7.155 and 7.032
hTA1; WT hTA1, β-PEA = 100, average of the two experiments
  Emax values, Avg: 100
hTA1; WT hTA1, β-PEA = 100, each line an independent experiment, 3 replicates
  Emax values, Mean: 100
hTA1; WT, Avg of the two experiments, β-PEA = 100
  Emax values, Avg: 100
hTA1; WT, average of the experiments, β-PEA = 100
  Emax values, Avg: 100
hTA1; WT, average of the two experiments
  Emax values, Avg: 100
hTA1; WT, mean of each independent experiment (3 replicates), β-PEA = 100
  Emax values, Mean: 100
hTA1; WT, mean of one experiment (3 replicates), β-PEA = 100
  Emax values, Mean: 100
hTA1; WT, single experiments (3 replicates each), β-PEA = 100
  Emax values, Mean: 100
hTA1; M = -5
  Dose-response curves for asenapine vs endogenous trace amines: 114.55 and 104.58 and 118.623 and 102.53 and 95.7683 and 107.085
hTA1; M = -5.522
  Dose-response curves for asenapine vs endogenous trace amines: 96.3904 and 87.8446 and 97.5922 and 98.0692 and 90.9789 and 92.0588
hTA1; M = -6
  Dose-response curves for asenapine vs endogenous trace amines: 88.2006 and 75.1148 and 94.0536 and 103.14 and 88.8658 and 89.805
hTA1; M = -6.522
  Dose-response curves for asenapine vs endogenous trace amines: 73.7573 and 64.299 and 91.1383 and 74.7791 and 68.7219 and 73.7461
hTA1; M = -7
  Dose-response curves for asenapine vs endogenous trace amines: 70.4636 and 45.5827 and 61.4726 and 66.5619 and 44.258 and 53.6961
hTA1; M = -7.522
  Dose-response curves for asenapine vs endogenous trace amines: 36.1467 and 21.3027 and 35.9464 and 26.7905 and 17.9158 and 22.3766
hTA1; M = -8
  Dose-response curves for asenapine vs endogenous trace amines: 22.727 and 16.7405 and 21.3472 and 13.3611 and 11.9525 and 11.6238
hTA1; M = -8.522
  Dose-response curves for asenapine vs endogenous trace amines: 4.5 and 4.523 and 5.969 and 4.393 and 2.514 and 2.6083
hTA1; M = -9
  Dose-response curves for asenapine vs endogenous trace amines: 1.986 and 1.318 and 1.8743 and 1.716 and 1.012 and 1.106
hTA1; M = -9.522
  Dose-response curves for asenapine vs endogenous trace amines: -1.063 and -1.33 and -0.4402 and -0.06817 and 0.1666 and -0.4908
hTA1; M = -10
  Dose-response curves for asenapine vs endogenous trace amines: -0.596 and -1.264 and -0.5515 and -0.4438 and -0.7725 and -0.6786
hTA1; M = -10.522
  Dose-response curves for asenapine vs endogenous trace amines: -1.3749 and -1.931 and -0.6405 and 0.0727 and -0.5847 and -1.101
hTA1; M = -11
  Dose-response curves for asenapine vs endogenous trace amines: -0.1286 and -1.241 and 0.2497 and 0.6362 and -0.3499 and -0.7725
hTA1; M = -11.522
  Dose-response curves for asenapine vs endogenous trace amines: -0.01735 and -1.575 and -0.7963 and 0.5892 and -0.3969 and -0.256
hTA1; M = -12
  Dose-response curves for asenapine vs endogenous trace amines: -1.353 and -1.3749 and -1.286 and 0.02574 and -0.4908 and -0.3029
hTA1; M = -12.522
  Dose-response curves for asenapine vs endogenous trace amines: -1.152 and -1.664 and -0.9075 and 0.5892 (2×) and 0.4483
hTA1; wt hTA1, HEK293T, n=3
  Span ± SEM (Emax normalized to β-PEA): 100 ± 2.26
  pEC50 ± SEM: 7.09 ± 0.05
hTA1; wt hTA1, HEK293T, n=3, read-out: EC50
  EC50: 80.6 nM
hTA1; wt hTA1, relative to β-PEA
  Emax: 100.0%
hTA1 I290Y; M -5
  Normalized Luminescence Counts for Concentration Response Curves: 106.77 and 91.3809 and 125.546 and 108.456 and 111.021 and 107.357 and 101.946 and 94.0497 and 113.225
hTA1 I290Y; M -6
  Normalized Luminescence Counts for Concentration Response Curves: 87.3796 and 52.2914 and 77.8381 and 75.4765 and 68.8807 and 65.9492 and 71.4902 and 68.1063 and 59.0825
hTA1 I290Y; M -7
  Normalized Luminescence Counts for Concentration Response Curves: 31.0537 and 19.6655 and 31.3615 and 25.6411 and 22.3431 and 26.3739 and 25.2433 and 15.0915 and 12.8355
hTA1 I290Y; M -8
  Normalized Luminescence Counts for Concentration Response Curves: 5.199 (2×) and 2.121 and 24.1753 and 3.655 and 1.823 and 1.556 and -1.828 and -0.7002
hTA1 I290Y; M -9
  Normalized Luminescence Counts for Concentration Response Curves: -0.341 (2×) and -2.496 and 2.189 and -2.575 and -4.773 and 0.4278 and -1.828 and -2.956
hTA1 I290Y; M -10
  Normalized Luminescence Counts for Concentration Response Curves: -0.0332 (2×) and -1.88 and -5.873 and -4.407 and -4.773 and 2.684 and -1.828 and -0.7002
hTA1 I290Y; M -11
  Normalized Luminescence Counts for Concentration Response Curves: 0.5824 (2×) and -1.264 and -5.506 and -5.14 and -3.674 and -1.828 (3×)
hTA1 I290Y; M -12
  Normalized Luminescence Counts for Concentration Response Curves: 1.506 and -1.88 and -0.341 and -3.674 and -4.773 and 8.4185 and 1.556 (2×) and 2.684
hTA1 I290Y; I290Y
  Span ± SEM (Emax normalized to β-PEA): 100 ± 3.64
